From article PMC11684173 (ACS Omega, 2024)
Residues, ends and D or L forms follow the SMILES beside them. *: point of attachment. Cbz = O=C(OCc1ccccc1)*; NHOH = ON*

Key:
Experiment in all cases: biochemical
Atroxlysin-I (Atr-I) [1] = biological target: T1, Atroxlysin-I (Atr-I) (Bothrops atrox, UniProt P85420)
Leucurolysin-a (Leuc-a) = Leucurolysin-a (Leuc-a) (Bothrops leucurus, UniProt P84907)
Atroxlysin-I (Atr-I) [2] = biological target: T1, Atroxlysin-I (Atr-I); assay type: binding

T1 sequence (P85420 whole entry, added parts left off): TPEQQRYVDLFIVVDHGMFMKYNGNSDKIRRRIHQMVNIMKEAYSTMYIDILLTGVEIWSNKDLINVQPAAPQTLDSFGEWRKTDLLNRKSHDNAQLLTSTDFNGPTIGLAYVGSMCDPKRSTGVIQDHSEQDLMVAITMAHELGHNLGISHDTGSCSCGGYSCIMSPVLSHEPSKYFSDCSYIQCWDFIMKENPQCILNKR
Chain of Leucurolysin-a (Leuc-a) (P84907 whole entry, looked up): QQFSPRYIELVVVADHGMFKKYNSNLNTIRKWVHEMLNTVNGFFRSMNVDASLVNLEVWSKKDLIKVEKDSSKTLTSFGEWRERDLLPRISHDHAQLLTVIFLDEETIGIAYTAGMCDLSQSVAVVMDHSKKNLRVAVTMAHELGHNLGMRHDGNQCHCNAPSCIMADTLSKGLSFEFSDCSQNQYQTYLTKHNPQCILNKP

SMILES	Hill coef. (Atroxlysin-I (Atr-I) [1])	IC50 (Atroxlysin-I (Atr-I) [1]) [nM]	Hill coef. (Leucurolysin-a (Leuc-a))	IC50 (Leucurolysin-a (Leuc-a)) [nM]	Ki (Atroxlysin-I (Atr-I) [2]) [nM]	enthalpic contribution (Atroxlysin-I (Atr-I) [2]) [kcal/mol]	entropic contribution (Atroxlysin-I (Atr-I) [2]) [cal/K/mol]
CNC(=O)[C@H](Cc1ccccc1)NC(=O)[C@H](CC(C)C)[C@H](CSc1cccs1)C(=O)NO [BAT, batimastat]	0.85	50 ± 30	4.91	12000 ± 1000	–	–	–
CC(C)C[C@H](NC(=O)[C@@H]1CCCN1C(=O)OCc1ccccc1)C(=O)N[C@@H](C)C(=O)NO [COL, collagenase-I inhibitor] (Cbz-Pro-Leu-Ala-{NHOH})	2.28	8000 ± 2000	1.65	6000 ± 2000	–	–	–
CC(C)(NS(=O)(=O)c1ccc(Oc2ccc(F)cc2)cc1)C(=O)NO [CP4, CP471474]	2.37	20 ± 10	0.55	210 ± 110	160 ± 10	-3.8	18.4
CNC(=O)[C@@H](NC(=O)[C@H](CC(C)C)[C@H](O)C(=O)NO)C(C)(C)C [MAR, marimastat]	2.05	80 ± 10	0.78	690 ± 20	60 ± 10	-1.5	28.2
CNC(=O)[C@H](CCc1ccccc1)NC(=O)[C@H](CC(=O)NO)CC(C)C [MMP, mmp-III inhibitor]	1.79	50 ± 10	1.34	360 ± 170	–	–	–
CC1(C)SCCN(S(=O)(=O)c2ccc(Oc3ccncc3)cc2)[C@H]1C(=O)NO [PRI, prinomastat]	0.77	160 ± 10	1.96	20 ± 10	70 ± 50	-0.8	30
